# Measured values taken from patent publication US12617795B2, “Substituted 6,7-dihydro-5H-pyrrolo[3,4-d]pyrimidines, 5,7-dihydrofuro[3,4-d]pyrimidines, and pyrido[2,3-d]pyrimidines as KCC2 modulators” (Astrazeneca AB, priority 2020, dated 2026).
# Molecular target: T1, KCC2 (Homo sapiens, UniProt Q9H2X9)
# T1 construct: expressed in transfected cells; host or cells: HEK293 cells electroporated (Maxcyte STX) with the pcDNA3.1 KCC2 plasmid
# T1 sequence (Q9H2X9 1-1139): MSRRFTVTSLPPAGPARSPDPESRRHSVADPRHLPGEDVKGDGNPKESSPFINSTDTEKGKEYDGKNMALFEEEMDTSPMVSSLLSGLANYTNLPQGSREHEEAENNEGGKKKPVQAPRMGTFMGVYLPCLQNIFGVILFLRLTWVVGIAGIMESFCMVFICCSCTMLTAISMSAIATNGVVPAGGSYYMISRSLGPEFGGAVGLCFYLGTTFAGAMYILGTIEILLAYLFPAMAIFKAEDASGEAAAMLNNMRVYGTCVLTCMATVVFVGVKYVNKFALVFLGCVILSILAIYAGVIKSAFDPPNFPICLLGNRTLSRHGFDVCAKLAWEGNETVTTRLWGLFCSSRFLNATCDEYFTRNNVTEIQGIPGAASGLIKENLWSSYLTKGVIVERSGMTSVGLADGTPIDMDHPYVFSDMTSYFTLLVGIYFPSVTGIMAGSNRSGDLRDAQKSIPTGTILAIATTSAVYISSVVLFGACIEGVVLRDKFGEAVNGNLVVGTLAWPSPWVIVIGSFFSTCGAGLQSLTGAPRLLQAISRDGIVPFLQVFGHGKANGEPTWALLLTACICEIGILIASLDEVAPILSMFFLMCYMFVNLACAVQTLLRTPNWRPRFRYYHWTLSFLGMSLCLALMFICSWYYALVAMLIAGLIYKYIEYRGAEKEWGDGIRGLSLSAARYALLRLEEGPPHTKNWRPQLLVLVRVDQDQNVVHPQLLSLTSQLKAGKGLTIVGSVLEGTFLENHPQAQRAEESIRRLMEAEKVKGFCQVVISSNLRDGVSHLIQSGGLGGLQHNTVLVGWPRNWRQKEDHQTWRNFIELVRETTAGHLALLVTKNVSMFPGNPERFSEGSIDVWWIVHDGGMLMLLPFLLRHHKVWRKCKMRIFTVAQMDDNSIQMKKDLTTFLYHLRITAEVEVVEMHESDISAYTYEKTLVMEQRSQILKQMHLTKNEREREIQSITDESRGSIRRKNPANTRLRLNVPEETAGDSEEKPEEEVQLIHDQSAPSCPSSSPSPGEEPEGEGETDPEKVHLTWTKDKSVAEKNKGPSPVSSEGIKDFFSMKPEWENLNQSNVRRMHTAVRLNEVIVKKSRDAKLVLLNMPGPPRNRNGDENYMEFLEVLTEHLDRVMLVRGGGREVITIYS
# Assay: KCC2 thallium transport FLIPR-based assay (Tl+ influx in HEK293 cells expressing KCC2)
# Type: cell-based
# Conditions: 90 min compound incubation at RT, thallium flux at 120 s used to determine EC50
# Method: A thallium transport FLIPR-based assay was used to measure the ability of compounds to activate KCC2. KCC2 activity is assessed by measuring KCC2-dependent Tl^+ influx in a KCC2-expressing cell. The assay protocol was based on those described by Delpire et al (Proc Natl Acad Sci USA. 2009 Mar. 31; 106(13): 5383-5388) and Zhang et al (Journal of Biomolecular Screening 15(2): 2010).
# KCC2 was synthesised and codon optimised by GeneArt based on the Uniprot sequence Q9H2X9. The final sequence was subcloned into pcDNA3.1.
# HEK293 cells were grown in 10 layer cell stacks at 37° C., 5% CO2, in DMEM, 10% fetal calf serum and 2 mM Glutamine. The cells were detached by removing the media and washing the cell stack with 100 ml of PBS. The PBS was removed and 100 ml of 1× TrypLE was added and the cell stack returned to 37° C. for 5 min. The detached cells were then counted in a Vi Cell counter and spun for 10 min at 1250 rpm in a Sorval Legend centrifuge. The cells were diluted down in Maxcyte electroporation buffer at 4× the final concentration and spun as before. The cell pellet was resuspended at 1×10^8/cells per ml and electroporated in a Maxcyte Cl 2.2 bag on a Maxcyte STX machine via the HEK293 programme with 200 ug/ml of plasmid DNA. The cells were then allowed to recover for 30 min before adding to 500 ml of PBS and then counted again on the Vi Cell. The cells were then frozen down in planer controlled rate freeze in 90% complete media, 10% DMSO.
# All reagents were dispensed using a Mulitdrop Combi unless stated otherwise. All FluXOR Invitrogen propriety buffer compositions are mentioned in tables below.
# HEK293 KCC2 cells were harvested at a density of 3.33×10^5 cells/mL in complete media (DMEM, Sigma, D6546, 10% fetal calf serum and 1% Glutamax) and 30 μL per well seeded into 384-well PDL coated black-clear plates (Corning, 354663). Leave cells at RT for 20 mins to settle before incubating for 48 h at 37° C., 5% CO2. Following incubation, perform three wash steps in HBSS (Sigma, H6648) using a Biotek cell washer with the final aspiration leaving 20 μL HBSS residual volume in each well. A further 20 μL per well of thallium loading dye is then added (1 h, RT, protect from light). 5 μL of test compounds (100 μM top concentration, 1:2 dilutions, 12 point curve) were added using the FLIPR TETRA and incubated at RT for 90 min in the dark. Following compound incubation, the thallium flux response is read on FLIPR TETRA (ex. 515-575 nm) which is initiated by FLIRR TETRA dispensing 5 μL stimulus buffer into each well. Recordings are measured every 1 second for 120 seconds. Thallium flux at 120 s used to determine EC50.
# Compound buffer: Assay buffer with 1 μL of bumetanide per 10 ml.
row,EC50 [nM],Compound
1,707,"CC(C)N1Cc2c(Nc3ccc(C4CCCCC4)cc3)nc(N3CCOC(C4CC4)C3)nc2C1=O (single isomer, unassigned) [Example 14, 4-[(4-cyclohexylphenyl)amino]-2-(2-cyclopropylmorpholin-4-yl)-6-(propan-2-yl)-5,6-dihydro-7H-pyrrolo[3,4-d]pyrimidin-7-one]"
2,769,"CC(C)N1Cc2c(Nc3ccc(C4CCCCC4)cc3)nc(N3CCOC(C4CC4)C3)nc2C1=O (single isomer, unassigned) [Example 15, 4-[(4-cyclohexylphenyl)amino]-2-(2-cyclopropylmorpholin-4-yl)-6-(propan-2-yl)-5,6-dihydro-7H-pyrrolo[3,4-d]pyrimidin-7-one]"
3,1710,"CCN(CC)c1nc(Nc2ccc(C(C)C)cc2)c2c(n1)C(=O)N(C(C)C)C2 [Example 1, 2-(Diethylamino)-6-isopropyl-4-((4-isopropylphenyl)amino)-5,6-dihydro-7H-pyrrolo[3,4-d]pyrimidin-7-one]"
4,672,"CC(C)N1Cc2c(Nc3ccc(C4CCCCC4)cc3)nc(N3CCOC(C4CC4)C3)nc2C1=O (centres unmarked) [Example 2, 4-((4-cyclohexylphenyl)amino)-2-(2-cyclopropylmorpholino)-6-isopropyl-5,6-dihydro-7H-pyrrolo[3,4-d]pyrimidin-7-one]"
5,3000,"CC(C)c1ccc(Nc2nc(N3CCSC3)nc3c2CN(C(C)C)C3=O)cc1 [Example 3, 6-(propan-2-yl)-4-{[4-(propan-2-yl)phenyl]amino}-2-(1,3-thiazolidin-3-yl)-5,6-dihydro-7H-pyrrolo[3,4-d]pyrimidin-7-one]"
6,3760,"CC(C)c1ccc(Nc2nc(N3C[C@@H](C)O[C@@H](C)C3)nc3c2CN(C(C)C)C3=O)cc1 [Example 4, 2-[(2R,6S)-2,6-dimethylmorpholin-4-yl]-6-(propan-2-yl)-4-{[4-(propan-2-yl)phenyl]amino}-5,6-dihydro-7H-pyrrolo[3,4-d]pyrimidin-7-one]"
7,3770,"CC(C)c1ccc(Nc2nc(N3CCSCC3)nc3c2CN(C(C)C)C3=O)cc1 [Example 5, 6-(propan-2-yl)-4-{[4-(propan-2-yl)phenyl]amino}-2-(thiomorpholin-4-yl)-5,6-dihydro-7H-pyrrolo[3,4-d]pyrimidin-7-one]"
8,6820,"CC(C)c1ccc(Nc2nc(N3CCO[C@@H](C)C3)nc3c2CN(C(C)C)C3=O)cc1 [Example 6, 2-[(2S)-2-methylmorpholin-4-yl]-6-(propan-2-yl)-4-{[4-(propan-2-yl)phenyl]amino}-5,6-dihydro-7H-pyrrolo[3,4-d]pyrimidin-7-one]"
9,4500,"CC(C)c1ccc(Nc2nc(N3CCO[C@H](C)C3)nc3c2CN(C(C)C)C3=O)cc1 [Example 7, 2-[(2R)-2-methylmorpholin-4-yl]-6-(propan-2-yl)-4-{[4-(propan-2-yl)phenyl]amino}-5,6-dihydro-7H-pyrrolo[3,4-d]pyrimidin-7-one]"
10,5430,"CC(C)c1ccc(Nc2nc(N3C[C@H](C)O[C@@H](C)C3)nc3c2CN(C(C)C)C3=O)cc1 [Example 8, 2-[(2S,6S)-2,6-dimethylmorpholin-4-yl]-6-(propan-2-yl)-4-{[4-(propan-2-yl)phenyl]amino}-5,6-dihydro-7H-pyrrolo[3,4-d]pyrimidin-7-one]"
11,6140,"CC(C)c1ccc(Nc2nc(N3CCOCC3C)nc3c2CN(C(C)C)C3=O)cc1 (centres unmarked) [Example 9, 2-(3-methylmorpholin-4-yl)-6-(propan-2-yl)-4-{[4-(propan-2-yl)phenyl]amino}-5,6-dihydro-7H-pyrrolo[3,4-d]pyrimidin-7-one]"
12,2990,"CC(C)c1ccc(Nc2nc(N3CCOC(C4CC4)C3)nc3c2CN(C(C)C)C3=O)cc1 (centres unmarked) [Example 10, 2-(2-cyclopropylmorpholin-4-yl)-6-(propan-2-yl)-4-{[4-(propan-2-yl)phenyl]amino}-5,6-dihydro-7H-pyrrolo[3,4-d]pyrimidin-7-one]"
13,2010,"CC(C)N1Cc2c(Nc3ccc(C4CCCCC4)cc3)nc(N3CCOCC3)nc2C1=O [Example 11, 4-[(4-cyclohexylphenyl)amino]-2-(morpholin-4-yl)-6-(propan-2-yl)-5,6-dihydro-7H-pyrrolo[3,4-d]pyrimidin-7-one]"
14,1350,"CC1CN(c2nc(Nc3ccc(C4CCCCC4)cc3)c3c(n2)C(=O)N(C(C)C)C3)CCO1 (centres unmarked) [Example 12, 4-[(4-cyclohexylphenyl)amino]-2-(2-methylmorpholin-4-yl)-6-(propan-2-yl)-5,6-dihydro-7H-pyrrolo[3,4-d]pyrimidin-7-one]"
15,1710,"CC(C)N1Cc2c(Nc3ccc(C4CCCCC4)cc3)nc(N3CCO[C@H](C)C3)nc2C1=O [Example 13, 4-[(4-cyclohexylphenyl)amino]-2-[(2R)-2-methylmorpholin-4-yl]-6-(propan-2-yl)-5,6-dihydro-7H-pyrrolo[3,4-d]pyrimidin-7-one]"
16,749,"CC(C)N1Cc2c(Nc3ccc(C4CCCCC4)cc3)nc(N3CCOC(CC(F)(F)F)C3)nc2C1=O (centres unmarked) [Example 16, 4-[(4-cyclohexylphenyl)amino]-6-(propan-2-yl)-2-[2-(2,2,2-trifluoroethyl)morpholin-4-yl]-5,6-dihydro-7H-pyrrolo[3,4-d]pyrimidin-7-one]"
17,1090,"CC(C)N1Cc2c(Nc3ccc(C4CCCCC4)cc3)nc(N3CCO[C@H](CNC(=O)OC(C)(C)C)C3)nc2C1=O [Example 17, tert-butyl {[(2R)-4-{4-[(4-cyclohexylphenyl)amino]-7-oxo-6-(propan-2-yl)-6,7-dihydro-5H-pyrrolo[3,4-d]pyrimidin-2-yl}morpholin-2-yl]methyl}carbamate]"
18,1390,"CC(C)C1CN(c2nc(Nc3ccc(C4CCCCC4)cc3)c3c(n2)C(=O)N(C(C)C)C3)CCO1 (centres unmarked) [Example 18, 4-[(4-cyclohexylphenyl)amino]-6-(propan-2-yl)-2-[2-(propan-2-yl)morpholin-4-yl]-5,6-dihydro-7H-pyrrolo[3,4-d]pyrimidin-7-one]"
19,2040,"CC(C)N1Cc2c(Nc3ccc(C4CCCCC4)cc3)nc(N3CCSC3)nc2C1=O [Example 19, 4-[(4-cyclohexylphenyl)amino]-6-(propan-2-yl)-2-(1,3-thiazolidin-3-yl)-5,6-dihydro-7H-pyrrolo[3,4-d]pyrimidin-7-one]"
20,2350,"CCOCCN(C)c1nc(Nc2ccc(C3CCCCC3)cc2)c2c(n1)C(=O)N(C(C)C)C2 [Example 20, 4-[(4-cyclohexylphenyl)amino]-2-[(2-ethoxyethyl)(methyl)amino]-6-(propan-2-yl)-5,6-dihydro-7H-pyrrolo[3,4-d]pyrimidin-7-one]"
